Source: US20090142715A1, “LAMINATED RESIST USED FOR IMMERSION LITHOGRAPHY” (DAIKIN INDUSTRIES LTD., priority 2004, published 2009)
Read-outs that look alike come from different tables or passages of the source.

Test: Measurement of pKa value of monomer having hydrophilic functional group Y by NaOH titration
Format: physicochemical
Conditions: titration in water/acetone with NaOH, corrected by blank
Description: The method of measuring and calculating a pKa value is mentioned below using 1,1-bistrifluoromethyl-3-buten-1-ol:
In a water/acetone solution of 10/15 ml was poured 0.7865 g of CH2═CHCH2C(CF3)2OH, followed by stirring at room temperature. After it was confirmed that the solution was homogeneous, titration was carried out with 0.2 mole/L NaOH solution. A titration curve was obtained by adding the NaOH solution dropwise in increments of 0.15 ml and recording a pH value at every addition. An equivalence point was determined by an inflection point (maximum differential value of titration curve=dpH/dml) of the titration curve. In this case, the equivalence point was 14.5 ml. […] From a titration curve of water/acetone solution and aqueous solution which had been measured previously as a blank solution, a difference in a pH value derived from an electric potential difference between the solutions at titration of 7.25 ml was 1.29.
In the case of titration of 1.0865 g of CH2═CHCH2C(CF3)2OH by the same procedures as above, an equivalence point was 20.15 ml and a half of the equivalence point was 10.08 ml. A pH value at a half of the equivalence point was 10.78.
When the same procedures as above were carried out by changing the titration solution to about 0.05 mole/L NaOH, an equivalence point of 0.115 g of CH2═CHCH2C(CF3)2OH was 8.00 ml and a half of the equivalence point was 4.00 ml. A pH value at this time was 10.92.
With respect to the various fluorine-containing ethylenic monomers having OH group shown in Table 2, a pKa value was measured by the same procedures as above.

[1] = water/acetone solution, read-out: pKa

| Compound | pKa | pKa [1] |
| --- | --- | --- |
| 1,1,9,9-tetrahydro-2,5-bistrifluoromethyl-3,6-dioxa-8-nonenol | 12.6 | – |
| O=C(O)C1(F)CC2C=CC1C2 (centres unmarked) | – | 3.8 |
| C=C(F)C(=O)O [CH2═CF—COOH, α-fluoroacrylic acid] | – | 3.4 |
| C=C(F)C(F)(F)OC(F)(C(F)(F)F)C(F)(F)OC(F)(C(=O)O)C(F)(F)F (centres unmarked) [perfluoro-(9,9-dihydro-2,5-bistrifluoromethyl-3,6-dioxa-8-nonenoic acid)] | 3.6 | – |
| C=CCC(O)(C(F)(F)F)C(F)(F)F [1,1-bistrifluoromethyl-3-buten-1-ol] | 9.6 | – |
